Source: BindingDB's records for doi:10.7270/Q2H70D5W (University of Pittsburgh, 2007)

These compounds were tested against Gag-Pol polyprotein (Human immunodeficiency virus type 1 group M subtype B (isolate HXB2), UniProt P04585) (assay: concentration-response of HIV-1 RNase H blockers – biochemical, probe assessment, dose response (AID 652)). Conditions: pH 8; 23 °C.

Row | SMILES | IC50
1 | Cc1sc2nc(C(C)Nc3ccccc3N3CCOCC3)[nH]c(=O)c2c1C (centres undefined) [5,6-dimethyl-2-[1-[2-(4-morpholinyl)anilino]ethyl]-3H-thieno[2,3-d]pyrimidin-4-one] | 14.4 µM
2 | Nc1c(S(=O)(=O)c2cccc(Cl)c2)c2c(n1N=CC1=CC(=O)C(=O)C=C1)Nc1ccccc1N2 [4-[[2-azanyl-3-(3-chlorophenyl)sulfonyl-4,9-dihydropyrrolo[3,2-b]quinoxalin-1-yl]iminomethyl]cyclohexa-3,5-diene-1,2-dione] | 0.266 µM
3 | CC(C)OC(=O)CSc1nnc(-c2ccc(C(C)(C)C)cc2)n1N [2-[[4-amino-5-(4-tert-butylphenyl)-1,2,4-triazol-3-yl]thio]acetic acid isopropyl ester] | > 50 µM
4 | C=CCSc1nc2c(c(=O)[nH]c(=O)n2C)n1C(C)C [3-methyl-7-propan-2-yl-8-prop-2-enylsulfanylpurine-2,6-dione] | > 50 µM
5 | Cc1ccc2c(SCC(=O)NCc3ccco3)nc(-c3ccc(F)cc3)nc2c1 [2-[2-(4-Fluoro-phenyl)-7-methyl-quinazolin-4-ylsulfanyl]-N-furan-2-ylmethyl-acetamide] | 3.34 µM
6 | Cc1noc(C)c1CSc1nc2cc(S(=O)(=O)N3CCOCC3)ccc2o1 [2-[(3,5-dimethyl-1,2-oxazol-4-yl)methylsulfanyl]-5-morpholin-4-ylsulfonyl-1,3-benzoxazole] | 2.3 µM
7 | CCOC(=O)Cc1csc(-n2sc3ccccc3c2=O)n1 [MLS000082162] | 0.598 µM
8 | COc1ccc(Br)cc1C1CC(=O)N2CN(C)CSC2=C1C#N (centres undefined) [8-(5-bromanyl-2-methoxy-phenyl)-3-methyl-6-oxidanylidene-2,4,7,8-tetrahydropyrido[2,1-b][1,3,5]thiadiazine-9-carbonitrile] | 7.18 µM
9 | COc1ccc(OC)c(C=Nc2oc(-c3ccco3)c(-c3ccco3)c2C#N)c1 [MLS000068778] | 4.02 µM
10 | COc1ccccc1N1CSC2=C(C#N)C(c3ccc(SC)cc3)CC(=O)N2C1 (centres undefined) [3-(2-methoxyphenyl)-8-(4-methylsulfanylphenyl)-6-oxidanylidene-2,4,7,8-tetrahydropyrido[2,1-b][1,3,5]thiadiazine-9-carbonitrile] | 2.59 µM
11 | C=CCSc1nc2c(c(=O)[nH]c(=O)n2C)n1CC [7-ethyl-3-methyl-8-prop-2-enylsulfanylpurine-2,6-dione] | 3.75 µM
12 | C=CCOc1ccc(CC2C(=O)N(C)C(=O)N(C)C2=O)cc1 [1,3-dimethyl-5-[(4-prop-2-enoxyphenyl)methyl]-1,3-diazinane-2,4,6-trione] | 2.61 µM
13 | O=C(NC(=O)c1ccc(Cl)cc1)Nc1cc(N2CCCCC2)ncn1 [4-chloranyl-N-[(6-piperidin-1-ylpyrimidin-4-yl)carbamoyl]benzamide] | 8.45 µM
14 | CCOC(=O)c1sc(NC(=O)CSc2nnc(Cc3ccccc3)o2)c(C#N)c1C [4-cyano-3-methyl-5-[[1-oxo-2-[[5-(phenylmethyl)-1,3,4-oxadiazol-2-yl]thio]ethyl]amino]-2-thiophenecarboxylic acid ethyl ester] | 0.094 µM
15 | C=CCn1c(SCC(=O)c2ccc(O)c(O)c2)nnc1-c1ccccc1OC [1-(3,4-dihydroxyphenyl)-2-[[5-(2-methoxyphenyl)-4-prop-2-enyl-1,2,4-triazol-3-yl]sulfanyl]ethanone] | 2.57 µM
16 | N#Cc1c(NC(=O)CN2CCN(S(=O)(=O)c3ccc4c(c3)OCCO4)CC2)sc2c1CCC2 [MLS000053165] | 3.48 µM
17 | CCc1ccccc1N1CSC2=C(C#N)C(c3ccccc3F)CC(=O)N2C1 (centres undefined) [3-(2-ethylphenyl)-8-(2-fluorophenyl)-6-keto-2,4,7,8-tetrahydropyrido[2,1-b][1,3,5]thiadiazine-9-carbonitrile] | 1.22 µM
18 | CCCCCn1c(=O)c(C(=O)NCc2ccncc2)c(O)c2ccccc21 [1-amyl-2-hydroxy-4-keto-N-(4-pyridylmethyl)quinoline-3-carboxamide] | 7.42 µM
19 | CCOC(=O)C(C(C)=O)c1c(Br)c(O)c(O)c2c(C(=O)c3ccc(C)cc3)coc12 (centres undefined) [2-(6-bromo-4,5-dihydroxy-3-p-toluoyl-benzofuran-7-yl)-3-keto-butyric acid ethyl ester] | 0.421 µM
20 | CC(C)(C)C1=Nn2c(nnc2-c2ccccn2)SC1 [6-tert-butyl-3-(2-pyridinyl)-7H-[1,2,4]triazolo[3,4-b][1,3,4]thiadiazine] | 7.22 µM
21 | CCOC(=O)CSc1nc2cc(C(=O)NCc3ccco3)ccc2c(=O)n1C1CCCCC1 [2-[[3-cyclohexyl-7-(2-furfurylcarbamoyl)-4-keto-quinazolin-2-yl]thio]acetic acid ethyl ester] | 6.07 µM
22 | CCn1c2ccccc2c2nc3cc(S(=O)(=O)N4CCOCC4)ccc3nc21 [4-(6-ethylindolo[2,3-b]quinoxalin-2-yl)sulfonylmorpholine] | 1.02 µM
23 | COc1ccc(N2CSC3=C(C#N)C(c4ccc(OC)c(OC)c4)CC(=O)N3C2)c(OC)c1 (centres undefined) [3-(2,4-dimethoxyphenyl)-8-(3,4-dimethoxyphenyl)-6-oxidanylidene-2,4,7,8-tetrahydropyrido[2,1-b][1,3,5]thiadiazine-9-carbonitrile] | 17.8 µM
24 | O=C(O)c1ccc2c(c1)NC(=O)C(N1CCCC1)S2 (centres undefined) [3-keto-2-pyrrolidino-4H-1,4-benzothiazine-6-carboxylic acid] | 3.69 µM
25 | N#CC1C(=N)SC(=N)C(C#N)C1c1ccnc2ccccc12 (centres undefined) [2,6-bis(azanyl)-4-quinolin-4-yl-4H-thiopyran-3,5-dicarbonitrile] | 13.7 µM

Row | SMILES | IC50
26 | N#Cc1cc(-c2ccccc2)nn1-c1ccccc1 | 0.876 µM
27 | Cc1nc(C)c(C(=O)Nc2nc3c(C)cccc3s2)o1 [2,4-dimethyl-N-(4-methyl-1,3-benzothiazol-2-yl)-1,3-oxazole-5-carboxamide] | 1.49 µM
28 | N#Cc1c(N)nc(SCC(=O)NC2CCCCC2)c(C#N)c1-c1ccc(Cl)cc1 [2-[6-amino-4-(4-chlorophenyl)-3,5-dicyanopyridin-2-yl]sulfanyl-N-cyclohexylacetamide] | 4.42 µM
29 | CCC(C)c1ccc2oc(-c3ccc(NC(=O)c4nnc[nH]4)cc3)nc2c1 (centres undefined) [N-[4-(5-sec-butyl-1,3-benzoxazol-2-yl)phenyl]-1H-1,2,4-triazole-3-carboxamide] | 6.07 µM
30 | CCOC(=O)c1c(N)sn(-c2ccccc2C)c1=S [5-amino-2-(2-methylphenyl)-3-sulfanylidene-4-isothiazolecarboxylic acid ethyl ester] | 2.28 µM
31 | Cc1ccc(-n2sc3ccccc3c2=O)cc1S(=O)(=O)N1CCCCC1 [2-(4-methyl-3-piperidin-1-ylsulfonyl-phenyl)-1,2-benzothiazol-3-one] | 0.164 µM
32 | COc1cc(-c2nnc3sc(-c4cccnc4)nn23)cc(OC)c1OC [6-(3-pyridinyl)-3-(3,4,5-trimethoxyphenyl)-[1,2,4]triazolo[3,4-b][1,3,4]thiadiazole] | > 50 µM
33 | COc1ccc(C2C(C(C)=O)=C(C)N=c3sc(=Cc4ccc5c(c4)OCO5)c(=O)n32)cc1 (centres undefined) [SMR000020852] | 7.02 µM
34 | CSc1ccc(C2c3ccc(=O)c4c(C)oc(C)c4c3OC(=N)C2C#N)cc1 (centres undefined) [2-amino-7-keto-8,10-dimethyl-4-[4-(methylthio)phenyl]-4H-furo[1,2]cyclohepta[4,6-d]pyran-3-carbonitrile] | 5.81 µM
35 | c1ccc2c(c1)nnn2Cc1nnc2sc(-c3ccncc3)nn12 [3-(1-benzotriazolylmethyl)-6-pyridin-4-yl-[1,2,4]triazolo[3,4-b][1,3,4]thiadiazole] | 2.1 µM
36 | Cc1cc(NC(=O)CSc2nc(C3CC3)nc3sc4c(c23)CCC(C)C4)no1 (centres undefined) [2-(2-Cyclopropyl-7-methyl-5,6,7,8-tetrahydro-benzo[4,5]thieno[2,3-d]pyrimidin-4-ylsulfanyl)-N-(5-methyl-isoxazol-3-yl)-acetamide] | 5.41 µM
37 | CCOC(=O)N1CCc2c(sc3c2C(=O)NC(c2ccc(-c4ccc(Cl)cc4)o2)N3)C1 (centres undefined) [2-[5-(4-chlorophenyl)-2-furanyl]-4-oxo-1,2,3,5,6,8-hexahydropyrido[2,3]thieno[2,4-d]pyrimidine-7-carboxylic acid ethyl ester] | 5.27 µM
38 | C=CCn1c(=O)c(C(=O)Nc2nnc(C)s2)c(O)c2ccccc21 [1-allyl-2-hydroxy-4-keto-N-(5-methyl-1,3,4-thiadiazol-2-yl)quinoline-3-carboxamide] | 16.8 µM
39 | O=c1[nH]c(=O)n(-c2ccc(F)cc2)c(O)c1C=Nc1ccccc1N1CCCC1 [(5E)-1-(4-fluorophenyl)-5-[[2-(1-pyrrolidinyl)anilino]methylidene]-1,3-diazinane-2,4,6-trione] | 23.1 µM
40 | CC(=O)N(Cc1cc(=O)[nH]c2ccccc12)c1cccc(C)c1 [N-(3-methylphenyl)-N-[(2-oxidanylidene-1H-quinolin-4-yl)methyl]ethanamide] | 5.08 µM
41 | Cc1nn(CCC#N)c2c1P(=S)(N1CCCC1)OC(c1ccc(F)cc1)=N2 (centres undefined) [3-[3-(4-fluorophenyl)-7-methyl-1-(1-pyrrolidinyl)-1-sulfanylidene-5-pyrazolo[4,3-c][1,5,2]oxazaphosphorinyl]propanenitrile] | 0.879 µM
42 | C=CCNC(=O)c1c(N)n(-c2ccc3c(c2)OCO3)c2nc3ccccc3nc12 [2-amino-1-(1,3-benzodioxol-5-yl)-N-prop-2-enyl-3-pyrrolo[3,2-b]quinoxalinecarboxamide] | 32.7 µM
43 | Fc1ccc(-c2nnc3sc(-c4ccc5c(c4)OCO5)nn23)cc1 [6-(1,3-benzodioxol-5-yl)-3-(4-fluorophenyl)-[1,2,4]triazolo[3,4-b][1,3,4]thiadiazole] | 3.92 µM
44 | Cc1nn(CCc2nc(-c3ccco3)cs2)c2nc(O)cc(C(F)(F)F)c12 [SMR000060922] | 1.97 µM
45 | COc1cc(OC)c(C2CC(=O)N3CN(c4ccccc4C)CSC3=C2C#N)cc1OC (centres undefined) [MLS000080656] | 4.51 µM
46 | Cc1cccc(NC(=O)Cn2c(C)c(C#N)c3ccccc32)c1C [2-(3-Cyano-2-methyl-indol-1-yl)-N-(2,3-dimethyl-phenyl)-acetamide] | 29 µM
47 | Cc1ccc2c(c1C)NC(C(=O)O)C1CC=CC21 (centres undefined) | 1.03 µM
48 | COC(=O)c1ccc2c(=O)n(Cc3ccco3)c(SCC(=O)Nc3ccc(C)c(Cl)c3)nc2c1 [2-[[2-(3-chloro-4-methyl-anilino)-2-keto-ethyl]thio]-3-(2-furfuryl)-4-keto-quinazoline-7-carboxylic acid methyl ester] | 2.79 µM
49 | O=C1CC(c2ccccc2)Cc2nc(N3CCc4ccccc43)ncc21 (centres undefined) [2-(2,3-dihydroindol-1-yl)-7-phenyl-7,8-dihydro-6H-quinazolin-5-one] | 5.87 µM
